# Assay results from patent US20050154034A1, “Methods of using zonisamide as an adjunctive therapy for partial seizures” (Eisai Co., Ltd., priority 2004, published 2005).
# Columns and labels:
# [1] = Pharmacovigilance review of rhabdomyolysis/CPK elevation in zonisamide-treated patients; assay type: in vivo, human patients (U.S. and Japan)
# Source text: The pharmacovigilance data that were collected, reviewed and analyzed provided the following information in respect of the incidence of rhabdomyolysis/CPK elevation in the zonisamide-treated patient population. To date, a total of 10 cases fulfill the criteria of potential rhabdomyolysis cases. These 10 cases were reviewed in detail for evaluation of possible safety signals. All 10 cases fulfill serious criteria. Of these 10 cases, seven (7) cases were reported as rhabdomyolysis and three (3) cases were reported as CPK increase.
# Of the seven (7) rhabdomyolysis cases, six (6) are verbatim cases from Dainippon and one (1) originates in the U.S. Of the seven (7) cases, three (3) were pediatric cases and four (4) were adult cases.
# Of the seven (7) rhabdomyolysis cases, two (2) cases have strong confounding factors, but the possibility of zonisamide involvement cannot be completely excluded. Two (2) cases have moderate confounding factors, and zonisamide involvement may be possible.
# Of the three (3) cases of CPK increase, one (1) is a verbatim report from Dainippon, and two (2) originated from the U.S. Of the three (3) cases, two are pediatric patients and one is an adult. Of these three (3) cases, two (2) recovered and the outcome of the third is unknown.
# Of the three (3) cases of CPK increase, one (1) case has strong confounding factors, but the possibility of zonisamide involvement cannot be completely excluded. One (1) case has weak confounding factors, and zonisamide involvement may be possible.
# Estimates of zonisamide exposure, based upon retail and mail order prescriptions, indicate that the number of unique patients taking zonisamide capsules in the U.S. is about 37,276 (total prescriptions per year/average number of prescriptions per patient per year less a calculated percentage decrease based on estimated annual dropouts) in the time between approval in 2000 and December 2002 . Hospital patient data for that period, however, is not available and is not reflected in the estimates. Estimates of patient exposure for Japan indicate that the number of unique patients taking zonisamide is about 1,185,177 for time beginning with the approval in Japan through December 2002. Japanese data includes prescription and hospital patient data. Exposure from clinical trials are not included in the U.S. or Japanese exposure estimates. Based on these statistics, the estimated number of patients exposed to zonisamide in the U.S. and Japan is 1,222,453 unique patients. This is a rather conservative estimate, assuring that the number of patients actually exposed to zonisamide is unlikely to be higher than the estimate provided. Similarly, the incidences of rhabdomyolysis estimated herein are unlikely to be higher than calculated. […] For the one (1) case reported in Japan, this amounts to an estimated incidence of 1:1,185,177 based upon estimated Japanese exposure. For the one (1) case reported in the US, this represents an estimated incidence of 1:37,276 based upon estimated US exposure. These two (2) cases of CPK increase represent a combined estimated incidence of 1:611,227 based upon the combined estimates of Japanese and US exposure. Thus, the overall estimated incidences of elevated CPK are 1:395,059 for Japanese cases, 1:18,638 for US cases and 1:244,491 for both Japanese and US cases, based on combining the reported cases of rhabdomyolysis and elevated CPK (the standard surrogate marker of muscle breakdown and typically seen in rhabdomyolysis).
# Combining all the above cases of rhabdomyolysis and CPK increase, the estimated incidences of any patient who has experienced an elevated CPK (marker of muscle breakdown) are 1:400,000 for Japanese cases and 1:18,000 for US cases.
# sodium channels = conditions: in vitro; cited from earlier work
# T-type Ca2+ currents = conditions: in vitro; cited from earlier work
# [2] = test system: GABA/benzodiazepine receptor ionophore complex; conditions: in vitro; cited from earlier work
# [3] = test system: cultured mouse spinal cord neurons; conditions: 10-30 μg/mL, cited from earlier work
# rat hippocampal slices = conditions: 10-30 μg/mL; cited from earlier work
# [4] = test system: dopaminergic and serotonergic neurotransmission; conditions: in vivo microdialysis; cited from earlier work
# [5] = cited from earlier work
# carbonic anhydrase = conditions: fraction of the inhibition of acetazolamide; cited from earlier work
compound,measurement,setting,value
"NS(=O)(=O)Cc1noc2ccccc12 [zonisamide, 1,2-benzisoxazole-3-methanesulfonamide]",CPK increase cases recovered,"[1]; human, in vivo",2 cases
same,cases fulfilling the criteria of potential rhabdomyolysis cases,"[1]; human, in vivo",10 cases
same,cases of CPK increase with no or only weak confounding factors present,"[1]; human, in vivo",2 cases
same,cases of rhabdomyolysis with no or only weak confounding factors present,"[1]; human, in vivo",3 cases
same,cases reported as CPK increase,"[1]; human, in vivo",3 cases
same,cases reported as rhabdomyolysis,"[1]; human, in vivo",7 cases
same,combined estimated incidence of CPK increase,"[1]; human, in vivo","1:611,227"
same,rhabdomyolysis cases not recovered,"[1]; human, in vivo",2 cases
same,rhabdomyolysis cases recovered,"[1]; human, in vivo",2 cases
same,rhabdomyolysis cases recovering at time of report,"[1]; human, in vivo",1 cases
same,time to development of CPK increase after initiation of zonisamide treatment,"[1]; human, in vivo",two (2) days and six (6) weeks
same,time to development of rhabdomyolysis after initiation of zonisamide treatment,"[1]; human, in vivo",two (2) weeks and nine (9) years
same,rhabdomyolysis cases with fatal outcome,[1]; of 7 rhabdomyolysis cases,2 cases
same,effect on sodium channels,sodium channels,blocks sodium channels
same,"effect on voltage-dependent, transient inward currents (T-type Ca2+ currents)",T-type Ca2+ currents,reduces
same,binding to GABA/benzodiazepine receptor ionophore complex,[2],binds to the GABA/benzodiazepine receptor ionophore complex in an allosteric fashion
same,changes in chloride flux,[2],does not produce changes in chloride flux
same,postsynaptic GABA or glutamate responses,[3]; cultured mouse spinal cord neurons,without affecting
same,synaptically-driven electrical activity,[3],suppresses
same,neuronal or glial uptake of [3H]-GABA,rat hippocampal slices,without affecting
same,dopaminergic and serotonergic neurotransmission,[4],facilitates
same,frequency of side effects by dose,[5]; doses of 300 mg per day and above,more frequent
same,half-life,"[5]; human, in vivo",long half-life
same,hepatic enzyme induction,"[5]; human, in vivo",not known to be a hepatic enzyme inducer
same,time required to achieve steady state levels,[5]; upon reaching a stable dose or following dosage adjustment,up to two weeks
same,carbonic anhydrase inhibition compared to acetazolamide,carbonic anhydrase,1/50
